Assay results reported in PubChem BioAssay AID1996.
Values after ≈ are worked out from the molar mass of the structure shown.

conditions: buffer; pH 7.4; 200.0 µM

| SMILES | solubility kinetic [µg/mL] |
| --- | --- |
| COc1ccccc1OCCCCN1CCC(C)CC1 | 30.7 (≈ 111 µM) |
| O=C(OCc1c(F)cccc1Cl)c1cnc(Cl)c(Cl)c1 | < 0.7 |
| CCOC(=O)Cc1ccc(NC(=O)c2ccc([N+](=O)[O-])cc2)cc1 | 1 (≈ 3.05 µM) |
| Cc1cc(C(=O)Nc2ccc(Cl)cc2)on1 | 3.8 (≈ 16.1 µM) |
| COc1ccc(S(=O)(=O)NCC2CCCO2)cc1C(=O)O (centres undefined) | > 47.3 |
| CC(=O)c1cc2c(cc1NC(=O)CN(C)S(=O)(=O)c1cccs1)OCO2 | 6.4 (≈ 16.1 µM) |
| CO/N=C/c1c(-c2ccc(Cl)cc2)nc2cc(C)ccn12 | 0.3 (≈ 1 µM) |
| Cc1nc(CC(=O)Nc2nccs2)cs1 | > 35.9 |
| COc1ccc(CCNC(=O)C(=O)NCc2ccccn2)cc1 | > 47 |
| O=C(NCC1CCCO1)c1cc2cc(Cl)ccc2[nH]1 (centres undefined) | 17 (≈ 61 µM) |
| CCOC(=O)Cc1csc(NS(=O)(=O)c2ccc(C(F)(F)F)cc2)n1 | > 59.2 |
| COc1cccc(/C=C/C(=O)OCC(=O)NC2CCCCCCC2)c1 | 6.7 (≈ 19.4 µM) |
| COCCNC(=O)/C(C#N)=C/c1cccc(OCc2ccccc2)c1 | 21.2 (≈ 63 µM) |
| NC(=NCc1ccco1)NC(=O)c1ccccc1 | > 36.5 |
| O=C(NC1CC2CCCC(C1)N2C(=O)Nc1ccccc1F)C1CC1 (centres undefined) | 16.2 (≈ 46.9 µM) |
| COc1ccc(C2NC(=O)CCC2[N+](=O)[O-])cc1 (centres undefined) | > 37.5 |
| O=C(Nc1cccnc1)c1ccccc1-c1ccccc1 | > 41.1 |
| OCCN1CCN(c2ncnc3sc4c(c23)CCCC4)CC1 | > 47.8 |
| CCc1ccccc1NC(=O)c1sc2nc(C)cc(C)c2c1N | 0.5 (≈ 1.54 µM) |
| NC(=O)COC(=O)CCSc1ccc(Cl)cc1 | 30.2 (≈ 110 µM) |
| CCC(Sc1nc2ncnc(N)c2[nH]1)C(=O)O (centres undefined) | 34.1 (≈ 135 µM) |

| SMILES | solubility kinetic [µg/mL] |
| --- | --- |
| CCN(C(=O)CSc1nc(C)cc(=O)[nH]1)C1CCCCC1 | > 46.4 |
| CCc1cn(C2CC(O)C(CO)O2)c(=O)[nH]c1=O (centres undefined) | > 38.4 |
| Cc1ccc(CN2CCC(N3CC(C)OC(C)C3)CC2)cc1.Cl (centres undefined) | 31.8 |
| COc1ccc(CNC(=O)CN2C(=O)NC(c3ccccc3)(c3ccccc3)C2=O)cc1 | 4.5 (≈ 10.5 µM) |
| O=C(O)c1ccccc1Nc1ccc2nonc2c1[N+](=O)[O-] | > 45 |
| CC1CCCN(C(=O)/C(=C/c2ccco2)NC(=O)c2ccccc2)C1 (centres undefined) | > 50.8 |
| Cc1cc(NC(=O)CSc2ccc(F)cc2)no1 | > 39.9 |
| O=C(NC1CCCCCCC1)c1ccc(Br)o1 | 37.2 (≈ 124 µM) |
| Cc1ccccc1OCC(=O)OCC(=O)N1CCc2ccccc21 | 1.8 (≈ 5.53 µM) |
| Cc1ccc(OCC(=O)NCCCNC(=O)COc2ccc(C)cc2)cc1 | 15.1 (≈ 40.8 µM) |
| Cc1ccc(C)c(CSCc2nc3ccccc3[nH]2)c1 | 20.6 (≈ 72.9 µM) |
| CSc1nc2sc3c(c2c(=O)n1C)CCC3 | 2.6 (≈ 10.3 µM) |
| O=S(=O)(Nc1cccc(S(=O)(=O)N2CCCC2)c1)c1ccc(Cl)cc1 | > 60.1 |
| O=C(COC(=O)c1ccc(O)cc1)Nc1ccc(S(=O)(=O)N2CCOCC2)cc1 | 52.4 (≈ 125 µM) |
| COC(=O)CN1C(=O)N/C(=C/c2cc3c(cc2OC)OCO3)C1=O | 6.3 (≈ 18.8 µM) |
| CN(CC(=O)Nc1ccc(F)cc1)C(=O)CN1C(=O)NC2(CCCCC2)C1=O | 0.7 (≈ 1.79 µM) |
| Fc1ccc(Oc2ccnc(Cl)n2)c(Cl)c1 | 16.9 (≈ 65.2 µM) |
| CCOC(=O)C1=C(C)OC(N)=C(C#N)C1c1ccccc1 (centres undefined) | 37.1 (≈ 130 µM) |
| CCOC(=O)CCCNC(=O)COC(=O)c1cccc(F)c1 | 44.4 (≈ 143 µM) |
| CCCc1cc(=O)[nH]c(SCC(=O)Nc2ccc(Br)cc2)n1 | 1.1 (≈ 2.88 µM) |
| CC1CCCN(CC(O)COc2ccc(-c3ccccc3)cc2)C1 (centres undefined) | 44.4 (≈ 136 µM) |

| SMILES | solubility kinetic [µg/mL] |
| --- | --- |
| Cc1ccc(CNC(=O)c2ccc(OCC(C)C)cc2)n1C | 27.6 (≈ 91.9 µM) |
| CCC1=C(C)CN(C(=O)NCCc2ccc(S(=O)(=O)NC(=O)NC3CCC(C)CC3)cc2)C1=O (centres undefined) | > 73.6 |
| CC(C)CC(NC(N)=O)C(=O)NCc1ccc(Cl)cc1 (centres undefined) | 35.3 (≈ 119 µM) |
| Cc1cccc(NC(=O)c2cc3cc([N+](=O)[O-])ccc3s2)n1 | < 0.2 |
| CC(=O)N1CCC(c2c[nH]c3ccccc23)CC1 | > 36.3 |
| Cc1cc(C)nc(SC(C)CNS(=O)(=O)c2ccccc2)n1 (centres undefined) | 45.9 (≈ 136 µM) |
| CN(Cc1ccccc1)C(=O)COC(=O)CN1C(=O)c2ccccc2C1=O | > 55 |
| Cc1ccc(CN2C(=O)CSC2c2ccc(F)cc2)cc1 (centres undefined) | 16.8 (≈ 55.7 µM) |
| CC(C)N1CC(C(=O)Nc2ccc(F)c(Cl)c2)CC1=O (centres undefined) | > 44.8 |
| O=C(O)c1cccc(NC(=O)c2ccccc2NC(=O)c2cccc([N+](=O)[O-])c2)c1 | 48.3 (≈ 119 µM) |
| CC(=O)NCCc1nc2cc(NC(=O)c3ccc(Cl)cc3)ccc2n1C | 35.7 (≈ 96.3 µM) |
| O=C(NCc1ccc(Cl)cc1)N1CCN(Cc2ccccc2)CC1 | > 51.6 |
| O=C(Nc1ccc2c(c1)Cc1ccccc1-2)c1ccccc1F | < 0.6 |
| Cc1ccc(C2(C)NC(=O)N(CC(=O)N(c3ccccc3)C3CCS(=O)(=O)C3)C2=O)cc1 (centres undefined) | > 68.3 |
| COc1ccccc1OCC(O)CN1CCN(C(=O)c2ccccc2)CC1.Cl (centres undefined) | > 61 |
| COC(=O)C1=C(N)Oc2cc(C)[nH]c(=O)c2C1c1ccccc1OC (centres undefined) | 46.5 (≈ 136 µM) |
| C=C1C(C(=O)Nc2ccc(OC)cc2)C1C(=O)Nc1ccc(OC)cc1 (centres undefined) | 0.6 (≈ 1.7 µM) |
| CC(=O)c1cccc(NC(=S)NC2CCCCCCC2)c1 | 6 (≈ 19.7 µM) |
| Nc1ncnc(Nc2ccccc2Cl)n1 | 32.8 (≈ 148 µM) |
| Cc1ccnc(NC(=O)c2cccc(S(=O)(=O)N3CCCC3)c2)c1 | 43.1 (≈ 125 µM) |
| COc1ccc(CNC(=O)C(C)OC(=O)c2cccc(N(C)C)c2)cc1 (centres undefined) | 37.8 (≈ 106 µM) |

| SMILES | solubility kinetic [µg/mL] |
| --- | --- |
| CN(CC(=O)Nc1ccc(OC(F)F)cc1)S(=O)(=O)/C=C/c1ccccc1 | 5.4 (≈ 13.6 µM) |
| Cc1ccc(NS(=O)(=O)c2c(F)cc(F)c(Cl)c2F)cc1S(=O)(=O)N1CCOCC1 | > 72.7 |
| N/C(=N\OC(=O)/C=C/c1ccccc1)c1ccncc1 | 34.6 (≈ 129 µM) |
| O=C(NC(=O)c1ccccc1Cl)Nc1ccc(-c2cnco2)cc1 | < 0.2 |
| CCCCC(=O)Nc1cnc(NC(=O)c2ccco2)cc1C | > 45.2 |
| COc1ccc(CCNC(=O)c2ccccc2)cc1 | > 38.3 |
| CCNC(=O)CC1C(=O)N(c2ccc(OC)cc2)C(=O)N1CCOC (centres undefined) | > 52.4 |
| Cc1cc(C)cc(OCc2nc(-c3cccnc3)no2)c1 | 13.3 (≈ 47.3 µM) |
| COc1ccc(OC(C)C(=O)NC2CCCCCCC2)cc1 (centres undefined) | 45.1 (≈ 148 µM) |
| Cc1cc(=O)n2c3ccccc3n(C)c2n1 | > 32 |
| COc1ccc(NC(=O)CC2Oc3ccccc3NC2=O)c(OC)c1 (centres undefined) | 4 (≈ 11.7 µM) |
| C[N+](C)(C)CCOC(=O)CCC(=O)OCC[N+](C)(C)C.O.[Cl-] | > 59.6 |
| CCN(CC)c1ccc(N=Cc2c(O)[nH]c(=O)[nH]c2=O)cc1 | 5.8 (≈ 19.2 µM) |
| Cn1cc(S(=O)(=O)N2CCNCC2)cc1C(N)=O | > 40.8 |
| Cl.OC(c1ccccc1)C(CN1CCOCC1)c1ccccc1 (centres undefined) | > 50.1 |
| COc1ccc(N=Cc2c(OC)ccc3ccccc23)cc1 | 33.9 (≈ 116 µM) |
| CN1Cc2c(N3CCOCC3)nc3sc(C#N)c(N)c3c2CC1(C)C | 15 (≈ 42 µM) |
| Oc1ccc(/C=N/N2CCCCC2)cc1O | > 33 |
| CC(=O)N1CCN(Cc2nc3cc([N+](=O)[O-])ccc3n2C)CC1 | 45.1 (≈ 142 µM) |
| CS(=O)(=O)c1ccc(C(=O)N2CC(=O)Nc3ccccc32)cc1 | > 49.6 |
| Cn1c(SCc2cccc(Br)c2)nc2ccccc2c1=O | < 0.4 |
